Reference: ChEMBL document CHEMBL4421722, “Inhibitors of protein prenyltransferases” (2013)
pIC50: −log10 of the molar value.

Species on record: Rattus norvegicus
Experiment: Inhibition of rat recombinant geranylgeranyltransferase type I expressed in Escherichia coli assessed as residual enzyme activity for geranylgeranylation of K-Ras4B at 50 uM incubated for 30 mins in presence of [3H]GGPP by scintillation counting assay relative to control

Compared with `Cc1ccccc1S(=O)(=O)N1C[C@@H](C(=O)O)[C@H](Sc2ccc(Cl)cc2)C[C@H]1c1ccc(Cl)cc1`, `Cc1ccccc1S(=O)(=O)N1C[C@@H](C(=O)O)[C@H](Sc2ccccc2)C[C@H]1c1ccc(Cl)cc1` is lower in Activity: 83.5% for the first, 75.5% for the second.

Going from `Cc1ccc(S(=O)(=O)N2C[C@@H](C(=O)O)[C@H](Sc3ccccc3)C[C@H]2c2ccccc2F)cc1` to `Cc1ccc(S(=O)(=O)N2C[C@@H](C(=O)O)[C@H](Sc3ccccc3)C[C@H]2c2cccc(Cl)c2)cc1`, the Activity rises from 51% to 87.5%.

First: Cc1ccccc1S(=O)(=O)N1[C@@H](c2ccc(F)cc2)C(C(=O)O)=CC[C@H]1c1ccc(Cl)cc1
Second: Cc1ccccc1S(=O)(=O)N1[C@@H](c2ccccc2F)C(C(=O)O)=CC[C@H]1c1ccc(Cl)cc1
The Activity of the first is higher: 15.6 to 28.8% for the first, 8.4% for the second.

First: Cc1ccc(S(=O)(=O)N2C[C@@H](C(=O)O)[C@H](SCCC(C)C)C[C@H]2c2cccc(Cl)c2)cc1
Second: Cc1ccc(S(=O)(=O)N2C[C@@H](C(=O)O)[C@H](SCCc3ccccc3)C[C@H]2c2cccc(Cl)c2)cc1
The Activity of the first is higher: 25.1 to 26% for the first, 4.8 to 9.2% for the second.

First: Cc1ccc(S(=O)(=O)N2[C@@H](c3ccccc3)C(C(=O)O)=CC[C@H]2c2cccc(Br)c2)cc1
Second: O=C(O)C1=CC[C@@H](c2ccc(Cl)cc2)N(S(=O)(=O)c2ccc(Cl)cc2)[C@H]1c1cccc(Br)c1
The Activity of the first is higher: 35.2% for the first, 8.6 to 17.3% for the second.

Going from `O=C(O)C1=CC[C@@H](c2ccc(Cl)cc2)N(S(=O)(=O)c2ccc(Cl)cc2)[C@H]1c1cccc(Cl)c1` to `Cc1ccc([C@@H]2C[C@@H](Sc3ccc(Cl)cc3)[C@H](C(=O)O)CN2S(=O)(=O)c2ccc(Cl)cc2)cc1`, the Activity rises from 33.1% to 42.3%.

Compared with `C=CCS[C@H]1[C@@H](C(=O)O)[C@H](c2ccc(Br)cc2)N(S(=O)(=O)c2ccc(C)cc2)[C@@H]1CCC`, `CCOc1ccc([C@@H]2C[C@@H](Sc3ccc(Cl)cc3)[C@H](C(=O)O)CN2S(=O)(=O)c2ccc(C)cc2)cc1` is higher in Activity: 9.8% for the first, 72.4% for the second.

`Cc1ccc(S(=O)(=O)N2C[C@@H](C(=O)O)[C@H](SCc3ccc(Cl)cc3)C[C@H]2c2cccc(Cl)c2)cc1` gave an Activity of 11.9 to 13.5%.

Tested on: not listed separately
Experiment: Inhibition of rat recombinant geranylgeranyltransferase type I expressed in Escherichia coli assessed as reduction in geranylgeranylation of RhoA incubated for 30 mins in presence of [3H]GGPP by scintillation counting assay relative to control

Compared with `O=C(N[C@@H](Cc1ccccc1)C(=O)O)C1=CC[C@@H](c2cccc(Cl)c2)N(S(=O)(=O)c2ccc(Br)cc2)[C@H]1c1cccc(Br)c1`, `NC(=O)[C@H](Cc1ccccc1)NC(=O)C1=CC[C@@H](c2cccc(Cl)c2)N(S(=O)(=O)c2ccc(Br)cc2)[C@H]1c1cccc(Br)c1` is lower in pIC50: 7.49 for the first, under 4.70 for the second.

Going from `CC(C)C[C@H](NC(=O)C1=CC[C@@H](c2cccc(Cl)c2)N(S(=O)(=O)c2ccc(Br)cc2)[C@H]1c1cccc(Br)c1)C(=O)O` to `CC(C)C[C@H](NC(=O)C1=CC[C@@H](c2cccc(Cl)c2)N(S(=O)(=O)c2ccc(Br)cc2)[C@H]1c1cccc(Cl)c1)C(N)=O`, the pIC50 falls from 7.40 to under 4.70.

Compared with `O=C(O)C1=CC[C@@H](c2cccc(Br)c2)N(S(=O)(=O)c2ccc(Br)cc2)[C@H]1c1cccc(Br)c1`, `O=C(O)C1=CC[C@@H](c2cccc(Cl)c2)N(S(=O)(=O)c2ccc(Br)cc2)[C@H]1c1cccc(Br)c1` is higher in pIC50: 6.28 for the first, 6.77 to 6.81 for the second. The second is the more potent here.

First: O=C(O)C1=CC[C@@H](c2cccc(Cl)c2)N(S(=O)(=O)c2ccc(Br)cc2)[C@H]1c1cccc(Cl)c1
Second: O=C(O)C1=CC[C@@H](c2cccc(Br)c2)N(S(=O)(=O)c2ccc(Cl)cc2)[C@H]1c1cccc(Cl)c1
The pIC50 of the first is higher: 7.06 to 7.07 for the first, 6.81 to 6.90 for the second.

Compared with `O=C(O)C1=CC[C@@H](c2cccc(Br)c2)N(S(=O)(=O)c2ccc(F)cc2)[C@H]1c1cccc(Cl)c1`, `O=C(O)C1=CC[C@@H](c2cccc(Br)c2)N(S(=O)(=O)c2ccc(Cl)cc2)[C@H]1c1cccc(F)c1` is 0.59 log units lower in pIC50: 6.67 for the first, 6.08 for the second. The first is the more potent here.

First: NC(=O)[C@H](Cc1ccccc1)NC(=O)C1=CC[C@@H](c2cccc(Br)c2)N(S(=O)(=O)c2ccc(Cl)cc2)[C@H]1c1cccc(Cl)c1
Second: NC(=O)[C@H](Cc1ccccc1)NC(=O)C1=CC[C@@H](c2cccc(Cl)c2)N(S(=O)(=O)c2ccc(Cl)cc2)[C@H]1c1cccc(Cl)c1
The pIC50 of the first is higher: 6.35 to 6.52 for the first, 6.22 for the second.

`Cc1cccc([C@H]2C(C(=O)O)=CC[C@@H](c3cccc(Br)c3)N2S(=O)(=O)c2ccc(Cl)cc2)c1` and `O=C(O)C1=CC[C@@H](c2cccc(Cl)c2)N(S(=O)(=O)c2ccc(Cl)cc2)[C@H]1c1cccc(Cl)c1` are within 0.2 log units of each other in pIC50: 6.59 for the first, 6.62 for the second.

`CC(C)(C)[C@@H]1C=C(C(=O)O)[C@H](c2ccc(Cl)c(Cl)c2)N1S(=O)(=O)C(C)(C)C` and `CC(C)(C)[C@@H]1C=C(C(=O)O)[C@H](c2ccc(Cl)c(Cl)c2)N1S(=O)(=O)c1c(Cl)cccc1Cl` are the same in pIC50: 5.36 for the first, 5.36 for the second.

Species on record: Rattus norvegicus
Experiment: Inhibition of rat recombinant geranylgeranyltransferase type I expressed in Escherichia coli assessed as residual enzyme activity for geranylgeranylation of RhoA at 50 uM incubated for 30 mins in presence of [3H]GGPP by scintillation counting assay relative to control

First: Cc1ccccc1S(=O)(=O)N1C[C@@H](C(=O)O)[C@H](Sc2ccc(Cl)cc2)C[C@H]1c1ccc(Cl)cc1
Second: Cc1ccccc1S(=O)(=O)N1C[C@@H](C(=O)O)[C@H](Sc2ccccc2)C[C@H]1c1ccc(Cl)cc1
The Activity of the first is higher: 13% for the first, 7.8% for the second.

Going from `Cc1ccc(S(=O)(=O)N2C[C@@H](C(=O)O)[C@H](Sc3ccccc3)C[C@H]2c2ccccc2F)cc1` to `Cc1ccc(S(=O)(=O)N2C[C@@H](C(=O)O)[C@H](Sc3ccccc3)C[C@H]2c2cccc(Cl)c2)cc1`, the Activity rises from 8.1% to 8.3%.

Going from `Cc1ccccc1S(=O)(=O)N1[C@@H](c2ccc(F)cc2)C(C(=O)O)=CC[C@H]1c1ccc(Cl)cc1` to `Cc1ccccc1S(=O)(=O)N1[C@@H](c2ccccc2F)C(C(=O)O)=CC[C@H]1c1ccc(Cl)cc1`, the Activity falls from 12.6% to 4.1%.

Compared with `Cc1ccc(S(=O)(=O)N2C[C@@H](C(=O)O)[C@H](SCCC(C)C)C[C@H]2c2cccc(Cl)c2)cc1`, `Cc1ccc(S(=O)(=O)N2C[C@@H](C(=O)O)[C@H](SCCc3ccccc3)C[C@H]2c2cccc(Cl)c2)cc1` is lower in Activity: 12% for the first, 3.7% for the second.

Compared with `Cc1ccc(S(=O)(=O)N2[C@@H](c3ccccc3)C(C(=O)O)=CC[C@H]2c2cccc(Br)c2)cc1`, `O=C(O)C1=CC[C@@H](c2ccc(Cl)cc2)N(S(=O)(=O)c2ccc(Cl)cc2)[C@H]1c1cccc(Br)c1` is lower in Activity: 19.4% for the first, 5% for the second.

Compared with `O=C(O)C1=CC[C@@H](c2ccc(Cl)cc2)N(S(=O)(=O)c2ccc(Cl)cc2)[C@H]1c1cccc(Cl)c1`, `Cc1ccc([C@@H]2C[C@@H](Sc3ccc(Cl)cc3)[C@H](C(=O)O)CN2S(=O)(=O)c2ccc(Cl)cc2)cc1` is lower in Activity: 26.7% for the first, 3.3% for the second.

Compared with `C=CCS[C@H]1[C@@H](C(=O)O)[C@H](c2ccc(Br)cc2)N(S(=O)(=O)c2ccc(C)cc2)[C@@H]1CCC`, `CCOc1ccc([C@@H]2C[C@@H](Sc3ccc(Cl)cc3)[C@H](C(=O)O)CN2S(=O)(=O)c2ccc(C)cc2)cc1` is lower in Activity: 7.5% for the first, 2.6% for the second.

`Cc1ccc(S(=O)(=O)N2C[C@@H](C(=O)O)[C@H](SCc3ccc(Cl)cc3)C[C@H]2c2cccc(Cl)c2)cc1` showed an Activity of 6%.
